Laboratory results published in ChEMBL document CHEMBL4507291 (2021).

Experiments:
[1] = target: Histamine H3 receptor (Homo sapiens) (UniProt Q9Y5N1); settings: Compound concentration 10.0 uM
[2] = system: Dual specificity mitogen-activated protein kinase kinase 6 (Homo sapiens), P52564 [S207E,T211E]; assay: MAP2K6 (MKK6) S207E T211E Kinase screen; settings: Compound concentration 1.0 uM
[3] = target: Protein kinase C theta type (Homo sapiens) (UniProt Q04759); assay: PRKCQ (PKC theta) Kinase screen; settings: Compound concentration 1.0 uM
Protein kinase C theta type (Homo sapiens), sequence (Q04759 whole entry, looked up, the tested form may be a part): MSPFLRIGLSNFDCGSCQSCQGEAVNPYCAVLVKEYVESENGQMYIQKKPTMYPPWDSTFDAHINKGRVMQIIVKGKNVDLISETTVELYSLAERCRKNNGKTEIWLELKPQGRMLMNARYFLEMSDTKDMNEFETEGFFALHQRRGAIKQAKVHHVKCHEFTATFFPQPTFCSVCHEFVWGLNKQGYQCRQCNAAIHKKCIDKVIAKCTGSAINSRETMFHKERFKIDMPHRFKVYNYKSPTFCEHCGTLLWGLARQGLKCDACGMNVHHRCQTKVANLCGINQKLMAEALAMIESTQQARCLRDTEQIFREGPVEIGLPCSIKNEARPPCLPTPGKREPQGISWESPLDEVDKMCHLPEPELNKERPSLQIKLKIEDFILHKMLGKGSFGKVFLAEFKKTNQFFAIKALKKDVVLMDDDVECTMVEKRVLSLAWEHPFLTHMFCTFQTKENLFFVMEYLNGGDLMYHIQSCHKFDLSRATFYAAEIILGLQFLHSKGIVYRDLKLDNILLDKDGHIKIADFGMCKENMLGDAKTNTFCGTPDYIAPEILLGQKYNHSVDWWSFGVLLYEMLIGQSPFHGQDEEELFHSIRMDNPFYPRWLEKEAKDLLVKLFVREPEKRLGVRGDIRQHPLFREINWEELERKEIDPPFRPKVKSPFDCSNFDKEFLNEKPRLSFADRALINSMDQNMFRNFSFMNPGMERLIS

[4] = target: T1, Discoidin domain-containing receptor 2 (Homo sapiens) (UniProt Q16832); assay: DDR2 Kinase screen; settings: Compound concentration 1.0 uM
T1 sequence (whole entry): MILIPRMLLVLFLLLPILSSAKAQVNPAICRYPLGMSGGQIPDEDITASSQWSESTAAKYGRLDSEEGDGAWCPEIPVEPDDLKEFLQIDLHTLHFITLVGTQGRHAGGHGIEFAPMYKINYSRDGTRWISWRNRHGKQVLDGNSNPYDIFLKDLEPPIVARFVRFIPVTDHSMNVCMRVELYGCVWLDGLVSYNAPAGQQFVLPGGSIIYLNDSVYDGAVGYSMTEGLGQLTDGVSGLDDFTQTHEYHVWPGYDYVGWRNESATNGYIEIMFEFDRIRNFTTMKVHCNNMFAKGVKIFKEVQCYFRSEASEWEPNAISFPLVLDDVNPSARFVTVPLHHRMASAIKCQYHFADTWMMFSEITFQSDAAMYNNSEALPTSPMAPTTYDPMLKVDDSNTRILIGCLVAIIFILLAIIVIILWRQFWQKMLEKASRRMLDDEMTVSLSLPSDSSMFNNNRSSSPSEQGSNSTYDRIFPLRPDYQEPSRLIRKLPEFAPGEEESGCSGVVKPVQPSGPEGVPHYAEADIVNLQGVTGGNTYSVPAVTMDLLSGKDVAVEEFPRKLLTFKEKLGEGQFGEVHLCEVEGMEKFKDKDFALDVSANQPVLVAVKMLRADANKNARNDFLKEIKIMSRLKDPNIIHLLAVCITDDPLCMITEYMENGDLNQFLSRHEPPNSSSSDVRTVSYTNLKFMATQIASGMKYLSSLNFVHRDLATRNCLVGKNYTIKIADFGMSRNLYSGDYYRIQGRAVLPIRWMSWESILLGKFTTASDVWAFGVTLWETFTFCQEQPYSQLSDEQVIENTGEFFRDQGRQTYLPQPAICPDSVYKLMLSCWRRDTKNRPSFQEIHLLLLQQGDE

[5] = target: Macrophage colony-stimulating factor 1 receptor (Homo sapiens) (UniProt P07333); assay: CSF1R (FMS) Kinase screen; settings: Compound concentration 1.0 uM
Macrophage colony-stimulating factor 1 receptor (Homo sapiens), sequence (P07333 whole entry): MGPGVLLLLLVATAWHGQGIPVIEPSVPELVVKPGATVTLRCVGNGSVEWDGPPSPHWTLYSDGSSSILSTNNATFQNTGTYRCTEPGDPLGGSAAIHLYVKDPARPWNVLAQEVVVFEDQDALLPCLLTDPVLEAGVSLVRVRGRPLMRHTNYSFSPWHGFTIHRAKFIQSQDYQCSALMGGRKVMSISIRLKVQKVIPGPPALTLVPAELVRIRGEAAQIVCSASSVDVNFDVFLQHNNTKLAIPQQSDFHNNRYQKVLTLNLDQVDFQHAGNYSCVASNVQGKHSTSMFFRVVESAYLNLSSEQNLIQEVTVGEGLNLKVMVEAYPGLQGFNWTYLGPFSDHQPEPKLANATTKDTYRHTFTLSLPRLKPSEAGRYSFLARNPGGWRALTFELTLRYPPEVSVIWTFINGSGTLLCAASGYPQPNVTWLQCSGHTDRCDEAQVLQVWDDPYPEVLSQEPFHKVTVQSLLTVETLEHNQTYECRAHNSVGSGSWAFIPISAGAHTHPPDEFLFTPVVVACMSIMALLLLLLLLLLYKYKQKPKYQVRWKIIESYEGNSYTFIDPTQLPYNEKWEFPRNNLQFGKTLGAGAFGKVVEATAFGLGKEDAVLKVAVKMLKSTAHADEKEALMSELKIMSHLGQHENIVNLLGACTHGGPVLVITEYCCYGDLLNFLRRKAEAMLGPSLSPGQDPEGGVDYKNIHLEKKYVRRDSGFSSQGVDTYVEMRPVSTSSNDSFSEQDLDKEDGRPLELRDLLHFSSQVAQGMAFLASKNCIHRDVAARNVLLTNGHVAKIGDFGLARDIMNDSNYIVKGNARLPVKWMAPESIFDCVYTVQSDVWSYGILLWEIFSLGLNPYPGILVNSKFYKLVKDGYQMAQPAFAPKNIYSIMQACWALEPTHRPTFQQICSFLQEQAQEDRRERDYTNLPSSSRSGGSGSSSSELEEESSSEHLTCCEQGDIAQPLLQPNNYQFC

[6] = target: T2, G protein-coupled receptor kinase 3 (Homo sapiens) (UniProt P35626); assay: ADRBK2 (GRK3) Kinase screen; settings: Compound concentration 1.0 uM
T2 sequence (whole entry): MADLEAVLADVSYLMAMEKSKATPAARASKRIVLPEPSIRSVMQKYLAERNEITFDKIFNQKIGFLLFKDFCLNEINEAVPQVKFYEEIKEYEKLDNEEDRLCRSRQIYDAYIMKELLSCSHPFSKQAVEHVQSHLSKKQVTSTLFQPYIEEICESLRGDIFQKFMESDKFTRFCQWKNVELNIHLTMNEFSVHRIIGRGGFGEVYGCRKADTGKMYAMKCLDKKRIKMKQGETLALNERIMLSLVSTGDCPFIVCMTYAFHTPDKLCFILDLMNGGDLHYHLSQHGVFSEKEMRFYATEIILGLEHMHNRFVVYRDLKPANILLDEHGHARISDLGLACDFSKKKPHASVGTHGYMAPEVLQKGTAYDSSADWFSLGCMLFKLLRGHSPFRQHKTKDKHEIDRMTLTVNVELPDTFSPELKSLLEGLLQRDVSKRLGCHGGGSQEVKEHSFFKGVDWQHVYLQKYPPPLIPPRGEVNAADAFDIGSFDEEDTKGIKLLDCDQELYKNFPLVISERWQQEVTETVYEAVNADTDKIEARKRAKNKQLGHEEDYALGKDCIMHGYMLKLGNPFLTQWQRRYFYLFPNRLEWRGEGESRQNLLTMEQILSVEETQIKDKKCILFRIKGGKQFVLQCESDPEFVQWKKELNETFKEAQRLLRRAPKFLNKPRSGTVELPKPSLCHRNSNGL

[7] = target: T3, Tyrosine-protein kinase ZAP-70 (Homo sapiens) (UniProt P43403); assay: ZAP70 Kinase screen; settings: Compound concentration 1.0 uM
T3 sequence (whole entry): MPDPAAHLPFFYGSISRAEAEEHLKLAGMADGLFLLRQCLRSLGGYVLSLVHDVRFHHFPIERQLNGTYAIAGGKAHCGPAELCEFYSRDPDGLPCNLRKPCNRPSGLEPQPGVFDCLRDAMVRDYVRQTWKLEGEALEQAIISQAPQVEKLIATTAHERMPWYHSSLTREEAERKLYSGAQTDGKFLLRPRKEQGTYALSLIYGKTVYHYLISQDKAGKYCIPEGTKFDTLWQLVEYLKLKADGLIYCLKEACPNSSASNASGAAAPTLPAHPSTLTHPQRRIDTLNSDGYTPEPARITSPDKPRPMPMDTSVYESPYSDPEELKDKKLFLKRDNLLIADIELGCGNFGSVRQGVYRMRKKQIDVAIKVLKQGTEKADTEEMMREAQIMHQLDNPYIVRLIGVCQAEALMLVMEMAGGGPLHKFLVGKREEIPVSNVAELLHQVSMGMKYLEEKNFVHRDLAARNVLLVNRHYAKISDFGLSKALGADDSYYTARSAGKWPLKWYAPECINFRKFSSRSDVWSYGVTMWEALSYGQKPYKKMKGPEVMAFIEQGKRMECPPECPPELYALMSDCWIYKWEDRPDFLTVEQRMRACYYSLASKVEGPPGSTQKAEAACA

[8] = target: Sodium-dependent serotonin transporter (Homo sapiens) (UniProt P31645); settings: Compound concentration 10.0 uM
Sodium-dependent serotonin transporter (Homo sapiens), sequence (P31645 whole entry, looked up): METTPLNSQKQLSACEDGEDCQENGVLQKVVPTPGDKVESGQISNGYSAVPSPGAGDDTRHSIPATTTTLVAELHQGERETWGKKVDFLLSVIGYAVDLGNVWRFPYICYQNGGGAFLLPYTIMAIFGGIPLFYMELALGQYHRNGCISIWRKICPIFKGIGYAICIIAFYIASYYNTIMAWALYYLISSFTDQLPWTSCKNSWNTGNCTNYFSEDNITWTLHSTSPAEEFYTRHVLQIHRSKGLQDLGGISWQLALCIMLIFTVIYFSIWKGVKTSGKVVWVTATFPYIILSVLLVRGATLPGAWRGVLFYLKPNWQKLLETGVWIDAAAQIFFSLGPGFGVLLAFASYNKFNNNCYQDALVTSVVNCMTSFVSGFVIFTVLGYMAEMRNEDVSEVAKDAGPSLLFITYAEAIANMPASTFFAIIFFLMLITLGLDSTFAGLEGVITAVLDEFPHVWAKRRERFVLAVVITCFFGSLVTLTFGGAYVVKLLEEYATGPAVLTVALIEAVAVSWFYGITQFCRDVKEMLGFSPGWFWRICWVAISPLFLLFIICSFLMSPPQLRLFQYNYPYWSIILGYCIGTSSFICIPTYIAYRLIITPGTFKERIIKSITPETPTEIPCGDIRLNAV

[9] = target: T4, Muscarinic acetylcholine receptor M1 (Homo sapiens) (UniProt P11229); settings: Compound concentration 10.0 uM
T4 sequence (whole entry): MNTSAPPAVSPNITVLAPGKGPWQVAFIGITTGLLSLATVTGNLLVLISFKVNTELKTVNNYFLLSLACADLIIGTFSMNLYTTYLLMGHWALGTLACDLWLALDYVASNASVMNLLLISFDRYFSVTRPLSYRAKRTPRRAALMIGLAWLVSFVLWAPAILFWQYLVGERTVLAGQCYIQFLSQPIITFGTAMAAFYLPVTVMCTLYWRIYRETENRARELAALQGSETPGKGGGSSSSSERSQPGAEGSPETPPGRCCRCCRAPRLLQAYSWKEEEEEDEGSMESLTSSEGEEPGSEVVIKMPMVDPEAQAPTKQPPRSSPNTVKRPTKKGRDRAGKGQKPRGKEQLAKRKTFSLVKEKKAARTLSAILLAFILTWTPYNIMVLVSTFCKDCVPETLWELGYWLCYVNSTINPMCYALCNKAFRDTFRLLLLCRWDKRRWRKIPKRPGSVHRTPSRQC

[10] = target: Serine/threonine-protein kinase PLK1 (Homo sapiens) (UniProt P53350); assay: PLK1 Kinase screen; settings: Compound concentration 1.0 uM
Serine/threonine-protein kinase PLK1 (Homo sapiens), sequence (P53350 whole entry): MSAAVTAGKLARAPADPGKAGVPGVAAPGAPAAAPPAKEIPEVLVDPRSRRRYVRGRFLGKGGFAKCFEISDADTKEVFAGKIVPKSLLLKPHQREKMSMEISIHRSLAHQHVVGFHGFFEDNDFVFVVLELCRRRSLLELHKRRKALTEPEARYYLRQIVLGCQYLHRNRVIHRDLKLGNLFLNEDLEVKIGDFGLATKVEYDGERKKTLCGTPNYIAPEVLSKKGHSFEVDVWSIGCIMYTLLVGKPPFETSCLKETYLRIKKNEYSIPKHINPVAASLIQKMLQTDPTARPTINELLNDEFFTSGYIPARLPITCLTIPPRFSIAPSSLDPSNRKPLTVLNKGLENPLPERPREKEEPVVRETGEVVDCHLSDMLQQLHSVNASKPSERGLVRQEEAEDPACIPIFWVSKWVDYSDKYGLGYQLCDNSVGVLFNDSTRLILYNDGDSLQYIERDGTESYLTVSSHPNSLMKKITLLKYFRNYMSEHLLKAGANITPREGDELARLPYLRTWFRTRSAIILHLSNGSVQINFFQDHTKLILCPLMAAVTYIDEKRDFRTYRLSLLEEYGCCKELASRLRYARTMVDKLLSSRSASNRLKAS

Measured: inhibition

Dual specificity mitogen-activated protein kinase kinase 6 (Homo sapiens), P52564 [S207E,T211E], sequence (P52564 whole entry S207E/T211E): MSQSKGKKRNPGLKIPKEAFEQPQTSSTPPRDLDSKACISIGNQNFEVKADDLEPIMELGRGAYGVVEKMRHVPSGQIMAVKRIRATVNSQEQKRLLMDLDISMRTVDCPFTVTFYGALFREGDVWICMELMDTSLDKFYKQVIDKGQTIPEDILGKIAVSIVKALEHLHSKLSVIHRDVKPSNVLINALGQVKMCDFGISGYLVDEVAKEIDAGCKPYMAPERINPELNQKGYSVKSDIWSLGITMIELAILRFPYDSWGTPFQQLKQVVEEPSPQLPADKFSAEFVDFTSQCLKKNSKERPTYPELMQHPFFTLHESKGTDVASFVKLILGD
Histamine H3 receptor (Homo sapiens), sequence (Q9Y5N1 whole entry): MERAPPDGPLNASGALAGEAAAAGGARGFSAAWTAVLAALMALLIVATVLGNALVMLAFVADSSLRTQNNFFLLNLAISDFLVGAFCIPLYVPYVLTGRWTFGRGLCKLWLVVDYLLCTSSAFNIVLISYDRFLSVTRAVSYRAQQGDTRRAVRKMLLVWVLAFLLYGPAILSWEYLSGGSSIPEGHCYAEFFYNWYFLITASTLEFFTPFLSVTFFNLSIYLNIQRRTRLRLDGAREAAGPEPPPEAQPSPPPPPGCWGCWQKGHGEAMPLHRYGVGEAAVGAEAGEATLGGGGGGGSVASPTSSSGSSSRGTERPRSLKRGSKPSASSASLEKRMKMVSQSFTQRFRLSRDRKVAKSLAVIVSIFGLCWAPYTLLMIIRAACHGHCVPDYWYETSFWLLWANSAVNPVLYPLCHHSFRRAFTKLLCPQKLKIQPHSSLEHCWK

C[C@@H]1CN(c2cc(-c3nn(C)c4ccc(OC5(C)CC5)cc34)ncn2)C[C@H](C)O1 [MLi-2-NC]
inactive: [1] -6.25%

C[C@@H]1CN(c2cc(-c3n[nH]c4ccc(OC5(C)CC5)cc34)ncn2)C[C@H](C)O1 [MLi-2]
inactive: [2] -1.97% | [3] 2.46% | [4] 3.64% | [5] 6.91% | [6] -0.166% | [7] 10.2% | [8] 2% | [9] 12% | [10] 7.54%
